The record followed here is patent US20230265151A1, “GIP/GLP1 CO-AGONIST COMPOUNDS” (priority 2020, published 2023).

Where two headings read alike, the source gives them in different places. *1 amine or outer side, *2 acyl side, *3 side chain or, on linkers, in order; H or OH if unused. Where no end group is shown, it is not given here. Side-chain parts run from the residue outwards. [ ]: non-standard residue; d: D form. The star is where a group is joined. αMePhe(2-F) = C[C@](N)(Cc1ccccc1F)C(=O)O; γGlu = O=C(O)[C@H](CCC(=O)[*:2])N[*:1]; C14 diacid = O=C(O)CCCCCCCCCCCCC(=O)*; αMeY = C[C@](N)(Cc1ccc(O)cc1)C(=O)O; αMeL = CC(C)C[C@](C)(N)C(=O)O; Orn = NCCC[C@H](N)C(=O)O; AEEA = NCCOCCOCC(=O)O; Aib = CC(C)(N)C(=O)O

For test [1], the target named is T1, hGIPR (Homo sapiens, UniProt P48546).
T1 construct: expressed in transfected cells
T1 sequence (P48546 22-466): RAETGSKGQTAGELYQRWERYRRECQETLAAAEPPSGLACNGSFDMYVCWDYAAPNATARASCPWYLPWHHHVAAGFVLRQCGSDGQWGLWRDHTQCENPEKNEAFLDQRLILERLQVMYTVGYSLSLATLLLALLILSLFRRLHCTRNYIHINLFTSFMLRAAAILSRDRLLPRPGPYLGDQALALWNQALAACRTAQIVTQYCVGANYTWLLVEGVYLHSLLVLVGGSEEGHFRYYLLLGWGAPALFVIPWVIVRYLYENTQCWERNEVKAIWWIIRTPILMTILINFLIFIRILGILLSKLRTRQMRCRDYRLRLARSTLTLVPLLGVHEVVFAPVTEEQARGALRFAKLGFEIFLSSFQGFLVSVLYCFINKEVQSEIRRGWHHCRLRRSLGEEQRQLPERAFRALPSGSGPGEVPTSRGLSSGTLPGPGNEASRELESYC
Nature of the test: Functional cAMP formation (HTRF) in HEK-293 clonal cells expressing hGIPR, 0.1% bovine casein, without or with 1.0% human serum albumin. Type of test: cell-based. As to conditions: for EC50: geometric mean. In a few lines: (§1)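 Cells were stimulated with peptide for 30 min at 37° C, then lysed in buffer carrying cAMP-d2 and anti-cAMP Eu3+-cryptate for a competitive HTRF read after at least 60 min at room temperature. The 665/620 nm ratio was converted to nM cAMP against a standard curve.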

For test [2], the target named is hGLP-1R (Homo sapiens, UniProt P43220). Nature of the test: Functional cAMP formation (HTRF) in HEK-293 clonal cells expressing hGLP-1R, 0.1% bovine casein, without or with 1.0% human serum albumin. Format: cell-based. As to conditions: for EC50: geometric mean. Set-up: expressed in transfected cells. In a few lines: as §1
On the technique in general: Cyclic AMP is a second messenger, typically raised through Gs and lowered through Gi signalling.

The target of test [3] is T2, hGCGR (Homo sapiens, UniProt P47871).
T2 construct: expressed in transfected cells
Nature of the test: Functional cAMP formation (HTRF) in HEK-293 clonal cells expressing hGCGR, 0.1% bovine casein, without or with 1.0% human serum albumin. Type of test: cell-based. As to conditions: geometric mean. In a few lines:
as §1

The target of test [4] is human GLP-1 receptor (human, UniProt P43220 24-463). Nature of the test: cell-based or functional assay.
Test [5] concerns the target T3, human GIP receptor (human, UniProt P48546 22-466).
T3 sequence (looked up): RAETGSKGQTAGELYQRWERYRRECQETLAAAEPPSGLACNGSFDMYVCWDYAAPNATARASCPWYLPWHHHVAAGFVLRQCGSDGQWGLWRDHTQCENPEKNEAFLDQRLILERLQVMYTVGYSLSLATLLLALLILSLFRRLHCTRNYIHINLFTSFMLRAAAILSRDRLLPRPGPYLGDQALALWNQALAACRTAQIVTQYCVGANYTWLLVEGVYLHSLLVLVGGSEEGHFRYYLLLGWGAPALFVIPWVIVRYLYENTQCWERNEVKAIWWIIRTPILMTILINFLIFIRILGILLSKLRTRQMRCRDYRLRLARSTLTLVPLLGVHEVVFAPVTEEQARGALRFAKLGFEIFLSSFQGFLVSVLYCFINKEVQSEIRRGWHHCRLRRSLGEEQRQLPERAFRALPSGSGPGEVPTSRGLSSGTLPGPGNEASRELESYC
Nature of the test: cell-based or functional assay.

Sequence of hGLP-1R (P43220 24-463): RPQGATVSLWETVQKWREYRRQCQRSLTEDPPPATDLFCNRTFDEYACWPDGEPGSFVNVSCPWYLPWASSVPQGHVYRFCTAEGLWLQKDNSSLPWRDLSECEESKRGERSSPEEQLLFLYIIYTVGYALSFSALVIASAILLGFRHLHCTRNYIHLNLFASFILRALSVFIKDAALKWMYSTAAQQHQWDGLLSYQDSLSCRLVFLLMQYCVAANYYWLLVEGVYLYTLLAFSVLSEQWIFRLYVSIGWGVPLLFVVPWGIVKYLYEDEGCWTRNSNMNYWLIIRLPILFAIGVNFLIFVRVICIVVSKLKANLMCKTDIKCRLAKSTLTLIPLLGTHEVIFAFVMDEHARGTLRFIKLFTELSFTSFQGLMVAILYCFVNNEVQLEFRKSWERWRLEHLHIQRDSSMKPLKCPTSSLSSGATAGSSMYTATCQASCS
T2 sequence (P47871 26-477): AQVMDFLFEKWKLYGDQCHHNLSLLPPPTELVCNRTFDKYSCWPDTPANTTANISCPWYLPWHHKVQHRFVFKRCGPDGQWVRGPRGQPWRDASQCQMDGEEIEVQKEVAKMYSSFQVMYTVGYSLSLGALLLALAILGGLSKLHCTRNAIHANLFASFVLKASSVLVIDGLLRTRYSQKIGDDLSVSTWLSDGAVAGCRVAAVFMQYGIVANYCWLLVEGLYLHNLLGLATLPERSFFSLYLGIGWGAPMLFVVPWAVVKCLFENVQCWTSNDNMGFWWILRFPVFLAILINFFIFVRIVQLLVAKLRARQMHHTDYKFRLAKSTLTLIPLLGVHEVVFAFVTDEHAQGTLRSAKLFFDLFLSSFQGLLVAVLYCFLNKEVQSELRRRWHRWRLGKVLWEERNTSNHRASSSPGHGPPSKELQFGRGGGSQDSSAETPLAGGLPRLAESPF

In the case of `CC[C@H](C)[C@H](NC(=O)[C@H](CCCN)NC(=O)[C@H](CC(=O)O)NC(=O)[C@H](CC(C)C)NC(=O)[C@](C)(CC(C)C)NC(=O)[C@@H](NC(=O)[C@H](CO)NC(=O)[C@H](Cc1ccncc1)NC(=O)[C@H](CC(=O)O)NC(=O)[C@H](CO)NC(=O)[C@@H](NC(=O)[C@](C)(Cc1ccccc1F)NC(=O)[C@@H](NC(=O)CNC(=O)[C@H](CCC(=O)O)NC(=O)C(C)(C)NC(=O)[C@@H](N)Cc1ccc(O)cc1)[C@@H](C)O)[C@@H](C)O)[C@@H](C)CC)C(=O)N[C@@H](C)C(=O)N[C@@H](CCC(N)=O)C(=O)NC(C)(C)C(=O)N[C@@H](CCC(=O)O)C(=O)N[C@@H](Cc1ccccc1)C(=O)N[C@H](C(=O)N[C@@H](CCCCNC(=O)[C@@H](N)CCCCNC(=O)[C@@H](N)CCCCNC(=O)CC[C@H](NC(=O)CCCCCCCCCCCCC(=O)O)C(=O)O)C(=O)N[C@@](C)(Cc1ccc(O)cc1)C(=O)N[C@@H](CC(C)C)C(=O)N[C@H](C(=O)N[C@@H](CCC(=O)O)C(=O)NCC(=O)NCC(=O)N[C@@H](CCCCNC(=O)[C@@H](N)CCCCNC(=O)[C@@H](N)CCCCNC(=O)CC[C@H](NC(=O)CCCCCCCCCCCCC(=O)O)C(=O)O)C(=O)N[C@@H](CO)C(=O)N[C@@H](CO)C(=O)NCC(=O)N[C@@H](C)C(=O)N1CCC[C@H]1C(=O)N1CCC[C@H]1C(=O)N1CCC[C@H]1C(=O)N[C@@H](CO)C(N)=O)[C@@H](C)CC)[C@@H](C)CC` [Example 198], the Emax came out at 83.1 ± 3.45% in test [1] (HEK293, 0.1% bovine casein and 1.0% human serum albumin, 37° C., percent of maximal response to GIP(1-42)NH2, read-out: hGIPR Emax, % ± SEM); 94 ± 1.17% in test [1] (HEK293, percent of maximal response to GIP(1-42)NH2, 37° C., 0.1% bovine casein, arithmetic mean, read-out: hGIPR Emax, % ± SEM). Further, the EC50 is 0.0269 nM in test [1] (cAMP, incubated at 37° C., 0.1% bovine casein (no human serum albumin), read-out: hGIPR EC50, nM (SEM, n)); 14.5 nM in test [2] (0.1% bovine casein and 1.0% human serum albumin, 37° C., read-out: hGLP-1R EC50, nM (SEM, n)); 0.362 nM in test [2] (cAMP, incubated at 37° C., 0.1% bovine casein (no human serum albumin), read-out: hGLP-1R EC50, nM (SEM, n)); greater than 9950 nM in test [3] (0.1% bovine casein and 1.0% human serum albumin, 37° C., read-out: hGCGR EC50, nM (SEM, n)); greater than 9950 nM in test [3] (cAMP, incubated at 37° C., 0.1% bovine casein (no human serum albumin), read-out: hGCGR EC50, nM (SEM, n)).
Take `CC[C@H](C)[C@H](NC(=O)[C@H](CCCN)NC(=O)[C@H](CC(=O)O)NC(=O)[C@H](CC(C)C)NC(=O)[C@](C)(CC(C)C)NC(=O)[C@@H](NC(=O)[C@H](CO)NC(=O)[C@H](Cc1ccc(OC)cc1)NC(=O)[C@H](CC(=O)O)NC(=O)[C@H](CO)NC(=O)[C@@H](NC(=O)[C@](C)(Cc1ccccc1F)NC(=O)[C@@H](NC(=O)CNC(=O)[C@H](CCC(=O)O)NC(=O)C(C)(C)NC(=O)[C@@H](N)Cc1ccc(O)cc1)[C@@H](C)O)[C@@H](C)O)[C@@H](C)CC)C(=O)N[C@@H](C)C(=O)N[C@@H](CCC(N)=O)C(=O)NC(C)(C)C(=O)N[C@@H](CCCCNC(=O)COCCOCCNC(=O)COCCOCCNC(=O)CC[C@H](NC(=O)CCCCCCCCCOc1ccc(C(=O)O)cc1)C(=O)O)C(=O)N[C@@H](Cc1ccccc1)C(=O)N[C@H](C(=O)N[C@H](CCC(=O)O)C(=O)N[C@@](C)(Cc1ccc(O)cc1)C(=O)N[C@@H](CC(C)C)C(=O)N[C@H](C(=O)N[C@@H](CCCCNC(=O)COCCOCCNC(=O)COCCOCCNC(=O)CC[C@H](NC(=O)CCCCCCCCCOc1ccc(C(=O)O)cc1)C(=O)O)C(=O)NCC(=O)NCC(=O)N1CCC[C@H]1C(=O)N[C@@H](CO)C(=O)N[C@@H](CO)C(=O)NCC(=O)N[C@@H](C)C(=O)N1CCC[C@H]1C(=O)N1CCC[C@H]1C(=O)N1CCC[C@H]1C(=O)N[C@@H](CO)C(N)=O)[C@@H](C)CC)[C@@H](C)CC` [Example 280]: the Emax in test [1] (HEK293, read-out: hGIPR Emax, % ± SEM, 0.1% bovine casein and 1.0% human serum albumin, 37° C., percent of maximal response to GIP(1-42)NH2) is 88.5%; in test [1] (HEK293, read-out: hGIPR Emax, % ± SEM, cAMP, 37° C., 0.1% bovine casein, percent of maximal response to GIP(1-42)NH2, arithmetic mean) it was 105%; in test [2] (HEK293, read-out: hGLP-1R Emax, % ± SEM, 0.1% bovine casein and 1.0% human serum albumin, 37° C., percent of maximal response to GLP-1(7-36)NH2), 105%. In addition, the EC50 in test [1] (hGIPR EC50, nM (SEM, n), 0.1% bovine casein and 1.0% human serum albumin, 37° C.) is 4.84 nM; in test [1] (hGIPR EC50, nM (SEM, n), cAMP, 37° C., 0.1% bovine casein (no human serum albumin)), 0.0229 nM; in test [2] (hGLP-1R EC50, nM (SEM, n), cAMP, 37° C., 0.1% bovine casein (no human serum albumin)) it was 0.346 nM; in test [3] (hGCGR EC50, nM (SEM, n), 0.1% bovine casein and 1.0% human serum albumin, 37° C.), greater than 9950 nM; in test [3] (hGCGR EC50, nM (SEM, n), cAMP, 37° C., 0.1% bovine casein (no human serum albumin)) it was greater than 9950 nM.

B1: Example 91 (peptide)
peptide: Y[Aib]EGT[αMePhe(2-F)]TSDV[Aib]I[αMeL]LD[Orn]K([AEEA-AEEA-γGlu-C14 diacid])AQ[Aib]EFI[dE][αMeY]LIEGGK([AEEA-AEEA-γGlu-C14 diacid])SSGAPPPS-NH2
modifications: N-terminus assumed
SMILES: CC[C@H](C)[C@H](NC(=O)[C@H](CC(C)C)NC(=O)[C@](C)(Cc1ccc(O)cc1)NC(=O)[C@@H](CCC(=O)O)NC(=O)[C@@H](NC(=O)[C@H](Cc1ccccc1)NC(=O)[C@H](CCC(=O)O)NC(=O)C(C)(C)NC(=O)[C@H](CCC(N)=O)NC(=O)[C@H](C)NC(=O)[C@H](CCCCNC(=O)COCCOCCNC(=O)COCCOCCNC(=O)CC[C@H](NC(=O)CCCCCCCCCCCCC(=O)O)C(=O)O)NC(=O)[C@H](CCCN)NC(=O)[C@H](CC(=O)O)NC(=O)[C@H](CC(C)C)NC(=O)[C@](C)(CC(C)C)NC(=O)[C@@H](NC(=O)C(C)(C)NC(=O)[C@@H](NC(=O)[C@H](CC(=O)O)NC(=O)[C@H](CO)NC(=O)[C@@H](NC(=O)[C@](C)(Cc1ccccc1F)NC(=O)[C@@H](NC(=O)CNC(=O)[C@H](CCC(=O)O)NC(=O)C(C)(C)NC(=O)[C@@H](N)Cc1ccc(O)cc1)[C@@H](C)O)[C@@H](C)O)C(C)C)[C@@H](C)CC)[C@@H](C)CC)C(=O)N[C@@H](CCC(=O)O)C(=O)NCC(=O)NCC(=O)N[C@@H](CCCCNC(=O)COCCOCCNC(=O)COCCOCCNC(=O)CC[C@H](NC(=O)CCCCCCCCCCCCC(=O)O)C(=O)O)C(=O)N[C@@H](CO)C(=O)N[C@@H](CO)C(=O)NCC(=O)N[C@@H](C)C(=O)N1CCC[C@H]1C(=O)N1CCC[C@H]1C(=O)N1CCC[C@H]1C(=O)N[C@@H](CO)C(N)=O
Turning to B1, in test [4], the “EC50, cAMP” value is 0.153 nM and the “Emax, cAMP” value was found to be 94%. In addition, in test [5], the “EC50, cAMP” value was 0.0739 nM and the “Emax, cAMP” value is 92.8%.

As usually defined, the Emax is the maximal effect, on the per cent scale that the assay sets. As usually defined, the EC50 is the concentration that produces a half-maximal response.
